Format in all cases: functional, cell-based
Assay [1] concerns MCF7. In words: Antiproliferative activity against human MCF7 cells at >0.625 to 10 nM after 24 hrs by MTS assay. Background: Tetrazolium dyes change colour on reduction, which living cells bring about.
Assay [2] concerns MCF7. Description: Antiproliferative activity against human MCF7 cells at 0.625 nM after 24 hrs by MTS assay.
Assay [3] deals with MCF7. Description: Antiproliferative activity against human MCF7 cells at 0.3125 to 0.625 nM after 24 hrs by MTS assay.

Calls of active or inactive are those of the source. The calls are words filed in the database; no cut-off is given here.

As to `COC(=O)C1CCN(CCOc2ccc(C3(C)c4ccc(O)cc4CCN3c3ccc(F)cc3)cc2)CC1` (stereo unspecified), the outcome in the assay on MCF7 [1] was Active. Besides, the outcome with MCF7 [2] was inactive.

With `CCC(=C(c1ccc(O)cc1)c1ccc(OCCN(C)C)cc1)c1ccccc1`, the result in the assay with MCF7 [1] and in the assay on MCF7 [2] was Active.

Turning to `COC(=O)C1CCN(CCOc2ccc(C3(C)c4ccc(O)cc4CCN3c3ccc(Cl)cc3)cc2)CC1` (stereo unspecified), the result in the assay on MCF7 [1] and in the assay on MCF7 [3] was Active.

The values above are taken from ChEMBL document CHEMBL1154446, “Synthesis and preliminary biological evaluation of new carbon-11 labeled tetrahydroisoquinoline derivatives as SERM radioligands for PET imaging of ER expression in breast cancer” (Eur J Med Chem, 2008).
